Reference: PubChem BioAssay (NCI)
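Exposure lasted 48 hours, with cells grown in 96-well plates and compounds tested at five concentrations. Definition used: TGI = concentration required for complete inhibition of growth.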

Key:
Test in all cases: inhibition of tumour cell growth, NCI panel, 48 h
M14 melanoma = tested on: M14 melanoma
UO-31 renal = tested on: UO-31 renal
LOX IMVI melanoma = tested on: LOX IMVI melanoma
OVCAR-4 ovarian = tested on: OVCAR-4 ovarian
MDA-MB-435 = tested on: MDA-MB-435
SK-OV-3 ovarian = tested on: SK-OV-3 ovarian
PC-3 prostate = tested on: PC-3 prostate
MDA-N = tested on: MDA-N
HOP-62 NSCLC = tested on: HOP-62 NSCLC
HCC-2998 colon = tested on: HCC-2998 colon
OVCAR-8 ovarian = tested on: OVCAR-8 ovarian
COLO 205 colon = tested on: COLO 205 colon
BT-549 breast = tested on: BT-549 breast
HCT-15 colon = tested on: HCT-15 colon
SR leukemia = tested on: SR leukemia
K-562 leukemia = tested on: K-562 leukemia
HT29 colon = tested on: HT29 colon
SK-MEL-2 melanoma = tested on: SK-MEL-2 melanoma
MALME-3M melanoma = tested on: MALME-3M melanoma
SN12C renal = tested on: SN12C renal

Row | SMILES | TGI (M14 melanoma) | TGI (UO-31 renal) | TGI (LOX IMVI melanoma) | TGI (OVCAR-4 ovarian) | TGI (MDA-MB-435) | TGI (SK-OV-3 ovarian) | TGI (PC-3 prostate) | TGI (MDA-N) | TGI (HOP-62 NSCLC) | TGI (HCC-2998 colon) | TGI (OVCAR-8 ovarian) | TGI (COLO 205 colon) | TGI (BT-549 breast) | TGI (HCT-15 colon) | TGI (SR leukemia) | TGI (K-562 leukemia) | TGI (HT29 colon) | TGI (SK-MEL-2 melanoma) | TGI (MALME-3M melanoma) | TGI (SN12C renal)
1 | O=c1[nH]c(-c2cccc(F)c2)nc2ccccc12 | > 100 µM | > 67.9 µM | > 100 µM | > 65.9 µM | > 100 µM | > 61.3 µM | > 100 µM | > 100 µM | 52.4 µM | > 100 µM | > 93.1 µM | > 100 µM | > 68.8 µM | > 100 µM | > 100 µM | > 100 µM | > 100 µM | > 100 µM | > 100 µM | > 92 µM
2 | CCCCCC(O)[C@H]1C(=O)C[C@@H](O[Si](C)(C)C(C)(C)C)[C@@H]1/C=C/CCOCc1ccccc1 (stereo not given in full) | 34.5 µM | 27.5 µM | 43 µM | 34.1 µM | 22.4 µM | 31.1 µM | 30.9 µM | > 63.9 µM | 34.1 µM | 30.9 µM | 28.4 µM | 41.5 µM | 21.3 µM | 27.4 µM | > 62.9 µM | > 59.4 µM | 22.5 µM | 31.2 µM | 28.8 µM | 38.4 µM
3 | O=C1CCCC2=C(N1)C(=O)C=CC2=O | 55.1 µM | 57.9 µM | > 65.8 µM | 67.6 µM | 32.7 µM | > 100 µM | 29.9 µM | 30.9 µM | 61.9 µM | > 100 µM | 64.2 µM | 33.3 µM | 31.1 µM | 62.6 µM | 57.8 µM | 32 µM | 59 µM | 60.4 µM | 56.6 µM | > 69.2 µM
4 | CC(=O)CCNc1ccc(-c2cc(-c3ccc(N(C)C)cc3)nc3ccc4ccccc4c23)cc1 | > 88.8 µM | > 100 µM | > 100 µM | > 100 µM | > 100 µM | > 100 µM | > 100 µM | > 100 µM | > 100 µM | > 100 µM | > 100 µM | > 88.3 µM | > 100 µM | > 100 µM | > 100 µM | > 100 µM | > 100 µM | > 100 µM | > 100 µM | > 100 µM
5 | CN(c1ccccc1)S(=O)(=O)c1ccccc1[N+](=O)[O-] | > 100 µM | > 100 µM | > 100 µM | > 100 µM | > 100 µM | > 100 µM | > 100 µM | > 100 µM | > 100 µM | > 100 µM | > 100 µM | > 100 µM | > 100 µM | > 100 µM | > 100 µM | > 100 µM | > 100 µM | > 100 µM | > 100 µM | > 100 µM
